# Key:
# gastrointestinal tissue = test: Gastrointestinal motility in anesthetized dogs, strain gauge transducers (Example 30); conditions: 1.0 mg./kg. intravenously; strain gauge readings; result in words
# Method: Female beagle dogs having a weight of 7.0 to 11.0 kg. were anesthetized with pentobarbital and maintained in surgical anesthesia by supplemental I.V. injections of pentobarbital as needed. The body temperature of each dog was maintained at 36-37° C. The trachea was cannulated and the animal maintained on a respirator at 12 strokes/minute with a volume of 200 ml./stroke. The femoral artery was cannulated for blood pressure recording and both femoral veins were cannulated for intravenous injections and blood collection. Each dog was then prepared for gastrointestinal motility determinations as follows. […]
# After an equilibration period of 15 minutes, a dose of 50 pg/.kg. of methacholine was administered intravenously to the dog over a period of thirty seconds and the strain gauge readings were monitored to obtain a standard measurement of reactivity of the gastrointestinal tract.
# The strain gauge readings were again monitored to determine effect of the test compound on motility of the gastrointestinal tissue.
# [1] = system: Staph. aureus, strain 642a; test: In vivo activity: survival of infected mice, intraperitoneal administration (Example 27); conditions: for ED50: Staphylococcus aureus, 642A, ip, 120 h, intraperitoneal injection, mice infected with 100 x LD50 Staph. aureus, read-out: effective dose (ED50); for Mice Surviving: 5 days after infection
# Method: (§1) Eight groups of ten female CF-1 mice, each weighing 18-20 g. were supplied with food and water ad lib and injected intraperitoneally with a lethal dose (100 x LD50) of Staph. aureus, strain 642a. At 1 and 5 hours after intraperitoneal infection, the mice were administered by intraperitoneal injection equal doses of either erythromycin A ("A") or 4"-L-leu-gly-L-pro-erythromycin A ("B") dissolved in a phosphate buffered saline solution.
# [2] = system: Staph. aureus, strain 642a; test: In vivo activity: survival of infected mice, subcutaneous administration (Example 28); conditions: for ED50: Staphylococcus aureus, 642A, sc, 120 h, subcutaneous administration, mice infected with 100 x LD50 Staph. aureus, read-out: effective dose (ED50); for Mice Surviving: groups of ten mice, five days after infection
# Method: as §1
# The procedure of Example 25 was repeated except that the erythromycin A and 4"-L-leu-gly-L-pro-erythromycin A were administered subcutaneously instead of intraperitoneally.
# [3] = system: Staph. aureus, strain 642a; test: In vivo activity: survival of infected mice, oral administration (Example 29); conditions: after 0.5 ml homogenized milk; for ED50: Staphylococcus aureus, 642A, 120 h, oral administration, mice infected with 100 x LD50 Staph. aureus, read-out: effective dose (ED50); for Mice Surviving: groups of ten mice, five days after infection
# Method: as §1
# The procedure of Example 25 was repeated except that the erythromycin A and 4"-L-leu-gly-L-pro erythromycin A were administered orally, and that 0.5 ml of homogenized milk was administered orally to each mouse prior to administration of the test compound to minimize acid degredation of the test compound.
smiles,measurement,setting,value
"CC[C@H]1OC(=O)[C@H](C)[C@@H](O[C@H]2C[C@@](C)(OC)[C@@H](O)[C@H](C)O2)[C@H](C)[C@@H](O[C@@H]2O[C@H](C)C[C@H](N(C)C)[C@H]2O)[C@](C)(O)C[C@@H](C)C(=O)[C@H](C)[C@@H](O)[C@]1(C)O [Erythromycin Lactobionate, erythromycin A lactobionate]",effect of the test compound on motility of the gastrointestinal tissue,gastrointestinal tissue,"pronounced stimulation of the stomach, duodenum, jejunum and ileum, with no apparent effect on the colon"
"CC[C@H]1OC(=O)[C@H](C)[C@@H](O[C@H]2C[C@@](C)(OC)[C@@H](O)[C@H](C)O2)[C@H](C)[C@@H](O[C@@H]2O[C@H](C)C[C@H](N(C)C)[C@H]2O)[C@](C)(O)C[C@@H](C)C(=O)[C@H](C)[C@@H](O)[C@]1(C)O [A, erythromycin A]",ED50,[1],< 0.4 mg/kg
same,Mice Surviving,"[1]; total dose 0.4 mg/kg intraperitoneal, groups of ten mice",9
same,Mice Surviving,"[1]; total dose 1.9 mg/kg intraperitoneal, groups of ten mice",9
same,Mice Surviving,"[1]; total dose 7.5 mg/kg intraperitoneal, groups of ten mice",10
same,Mice Surviving,"[1]; total dose 30 mg/kg intraperitoneal, at 1 and 5 hours after infection, groups of ten female CF-1 mice",10
same,ED50,[2],2.8 mg/kg
same,Mice Surviving,[2]; total dose 0.4 mg/kg subcutaneous,1
same,Mice Surviving,[2]; total dose 1.9 mg/kg subcutaneous,1
same,Mice Surviving,[2]; total dose 7.5 mg/kg subcutaneous,10
same,Mice Surviving,[2]; total dose 30 mg/kg subcutaneous,10
same,ED50,[3],110 mg/kg
same,Mice Surviving,[3]; total dose 2.3 mg/kg oral,0
same,Mice Surviving,[3]; total dose 9.4 mg/kg oral,0
same,Mice Surviving,[3]; total dose 37.5 mg/kg oral,0
same,Mice Surviving,[3]; total dose 150 mg/kg oral,7
"CC[C@H]1OC(=O)[C@H](C)[C@@H](O[C@H]2C[C@@](C)(OC)[C@@H](OC(=O)[C@@H]3CCCN3C(=O)CNC(=O)[C@@H](N)CC(C)C)[C@H](C)O2)[C@H](C)[C@@H](O[C@@H]2O[C@H](C)C[C@H](N(C)C)[C@H]2O)[C@](C)(O)C[C@@H](C)C(=O)[C@H](C)[C@@H](O)[C@]1(C)O [B, 4""-L-leu-gly-L-pro-erythromycin A]",ED50,[1],0.6 mg/kg
same,Mice Surviving,"[1]; total dose 0.6 mg/kg intraperitoneal, groups of ten mice",5
same,Mice Surviving,"[1]; total dose 2.6 mg/kg intraperitoneal, groups of ten mice",10
same,Mice Surviving,"[1]; total dose 10.5 mg/kg intraperitoneal, groups of ten mice",10
same,Mice Surviving,"[1]; total dose 41.1 mg/kg intraperitoneal, groups of ten mice",10
same,ED50,[2],3.1 mg/kg
same,Mice Surviving,[2]; total dose 0.6 mg/kg subcutaneous,2
same,Mice Surviving,[2]; total dose 2.6 mg/kg subcutaneous,5
same,Mice Surviving,[2]; total dose 10.5 mg/kg subcutaneous,6
same,Mice Surviving,[2]; total dose 41.1 mg/kg subcutaneous,10
same,ED50,[3],181 mg/kg
same,Mice Surviving,[3]; total dose 3.2 mg/kg oral,0
same,Mice Surviving,[3]; total dose 12.8 mg/kg oral,0
same,Mice Surviving,[3]; total dose 51.3 mg/kg oral,0
same,Mice Surviving,[3]; total dose 205 mg/kg oral,6

# — EP0126344A2, “Tripeptide esters of therapeutic agents” (ABBOTT LABORATORIES, priority 1983, dated 1984)
